The conditions of assay [1]: ITC measurements; cited from earlier work. Background: ITC needs no label: the signal is the heat of the interaction.
The conditions of assay [2]: ITC measurements; cited from earlier work. This is another data set of the same source.
A short description of assay [3]: ITC association constant of cetirizine-β-cyclodextrin complex. Format: binding. The conditions noted are these: beta vs alpha and gamma cyclodextrin. The source says:
Either the phenyl group or the 4-chlorophenyl group fit inside the ring structure. The inside cavity of cylcodextrins is largely hydrophobic which is favorable for aromatic systems that are also hydrophobic. The formation of the chelate structure is […] favorable due to electrostatic interactions of the pi system of the aromatic moiety with in the hydrophobic cavity and electronic interaction with the hydrogen atoms and […]. It is these electronic interactions between these systems of the cyclodextrin and the pi system that gives the favorable heat of formation.

The conditions of assay [4]: ITC measurements; cited from earlier work. This is another data set of the same source.

The values below come from patent publication US20240299292A1, “STABLE SEMI-SOLID CHEWABLE GEL COMPOSITIONS AND METHODS OF MAKING AND USING THEREOF” (Seattle Gummy Company, priority 2021, published 2024).

As for `O=C(O)COCCN1CCN(C(c2ccccc2)c2ccc(Cl)cc2)CC1` (stereo not shown) [cetirizine], the “association constant, cetirizine-γ-cyclodextrin complex” value in assay [1] is 1200 ± 50 M⁻¹. In assay [2], the “association constant K(a), cetirizine-β-cyclodextrin complex” value was 5641 ± 358 M⁻¹. For the same compound, the “formation constant of beta cyclodextrin complex relative to alpha and gamma cyclodextrin” value in assay [3] is reported as “nearly four times”. Moreover, the “association constant K(a), cetirizine-α-cyclodextrin complex” value in assay [4] is 1434 ± 60 M⁻¹.
